US10414763B2 (CANCER RESEARCH TECHNOLOGY LIMITED, priority 2014, dated 2019)

Molecular target: T1, full-length human PKCι (Homo sapiens, UniProt P41743)
T1 construct: Recombinant, full-length human PKCι expressed in Sf21 insect cells is also commercially available; purchased EMD Millipore; host or cells: Sf21 insect cells (baculovirus)
T1 sequence (P41743 1-596): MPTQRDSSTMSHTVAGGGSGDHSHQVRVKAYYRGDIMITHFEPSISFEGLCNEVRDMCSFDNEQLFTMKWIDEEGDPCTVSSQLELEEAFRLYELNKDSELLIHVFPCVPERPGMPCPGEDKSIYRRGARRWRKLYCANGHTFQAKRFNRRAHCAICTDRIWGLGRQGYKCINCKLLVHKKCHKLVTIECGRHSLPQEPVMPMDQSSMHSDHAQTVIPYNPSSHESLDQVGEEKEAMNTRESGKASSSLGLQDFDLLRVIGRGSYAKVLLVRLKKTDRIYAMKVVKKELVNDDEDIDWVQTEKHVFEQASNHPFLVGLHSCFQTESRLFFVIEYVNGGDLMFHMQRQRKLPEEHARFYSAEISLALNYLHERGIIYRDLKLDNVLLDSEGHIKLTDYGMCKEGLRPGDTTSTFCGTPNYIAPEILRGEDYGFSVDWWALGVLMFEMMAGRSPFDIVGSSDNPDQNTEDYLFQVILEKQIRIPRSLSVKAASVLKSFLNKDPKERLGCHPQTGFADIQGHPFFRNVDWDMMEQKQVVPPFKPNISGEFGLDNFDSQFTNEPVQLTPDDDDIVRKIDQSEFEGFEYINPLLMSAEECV
Experiment: PKCι IC50 IMAP fluorescence polarisation assay, full-length enzyme, 150 μM ATP
Type: biochemical
Conditions: read-out: IC50 in IMAP assay against full length PKCi at 150 μM ATP
In short: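 IMAP fluorescence polarisation kinase assay: 15 pM baculovirus-expressed human PKCiota with 100 nM FAM-pseudosubstrate peptide and 150 μM ATP, 1 h at 25 °C. IMAP detection reagent then 2 h at 25 °C before FP measurement. Inhibition referenced to no-compound and no-enzyme controls for IC50 fitting.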

IC50 [nM]	Structure (SMILES)
< 100	Cc1cncc(-c2cc3c(-c4nc(N[C@H]5CCNCC5(C)C)c5c(C6CC6)cncc5n4)ccnc3[nH]2)c1 [Example 362, {5-Cyclopropyl-2-[2-(5-methyl-pyridin-3-yl)-1H-pyrrolo[2,3-b]pyridin-4-yl]-pyrido[3,4-d]pyrimidin-4-yl}-((S)-3,3-dimethyl-piperidin-4-yl)-amine]
< 100	CC1(C)CNCC[C@@H]1Nc1nc(-c2ccnc3[nH]c(-c4cncc(F)c4)cc23)nc2cncc(C3CC3)c12 [Example 365, {5-Cyclopropyl-2-[2-(5-fluoro-pyridin-3-yl)-1H-pyrrolo[2,3-b]pyridin-4-yl]-pyrido[3,4-d]pyrimidin-4-yl}-((S)-3,3-dimethyl-piperidin-4-yl)-amine]
< 100	CC1(C)CNCC[C@@H]1Nc1nc(-c2ccnc3[nH]c(C(=O)N4CCC4)cc23)nc2cncc(C3CC3)c12 [Example 366, Azetidin-1-yl-[4-[5-cyclopropyl-4-[[(4S)-3,3-dimethyl-4-piperidyl]amino]pyrido [3,4-d]pyrimidin-2-yl]-1H-pyrrolo[2,3-b]pyridin-2-yl]methanone]
< 100	CC1(C)CNCC[C@@H]1Nc1nc(-c2ccnc3[nH]c(-c4cccnc4)cc23)nc2cncc(C3CCC3)c12 [Example 367, [5-Cyclobutyl-2-(2-pyridin-3-yl-1H-pyrrolo[2,3-b]pyridin-4-yl)-pyrido[3,4-d]pyrimidin-4-yl]-((S)-3,3-dimethyl-piperidin-4-yl)-amine]
< 100	CC1(C)CNCC[C@@H]1Nc1nc(-c2ccnc3[nH]c(-c4cncc(F)c4)cc23)nc2cncc(C3CCC3)c12 [Example 370, {5-Cyclobutyl-2-[2-(5-fluoro-pyridin-3-yl)-1H-pyrrolo[2,3-b]pyridin-4-yl]-pyrido[3,4-d]pyrimidin-4-yl}-((S)-3,3-dimethyl-piperidin-4-yl)-amine]
< 100	CC1(C)CNCC[C@@H]1Nc1nc(-c2ccnc3[nH]c(-c4ccncc4)cc23)nc2cncc(C3CC3)c12 [Example 371, 5-Cyclopropyl-N-[(4S)-3,3-dimethyl-4-piperidyl]-2-[2-(4-pyridyl)-1H-pyrrolo[2,3-b]pyridin-4-yl]pyrido[3,4-d]pyrimidin-4-amine]
< 100	CC1(C)CNCC[C@@H]1Nc1nc(-c2ccnc(Nc3ccc4ccccc4n3)c2)nc2cncc(C3CC3)c12 [Example 378, {5-Cyclopropyl-2-[2-(quinolin-2-ylamino)-pyridin-4-yl]-pyrido[3,4-d]pyrimidin-4-yl}-((S)-3,3-dimethyl-piperidin-4-yl)-amine]
< 100	CC1(C)CNCC[C@H]1Nc1nc(-c2ccnc(Nc3cc4ccccn4n3)c2)nc2cncc(C3CCC3)c12 [Example 379, {5-Cyclobutyl-2-[2-(pyrazolo[1,5-a]pyridin-2-ylamino)-pyridin-4-yl]-pyrido[3,4-d]pyrimidin-4-yl}-((R)-3,3-dimethyl-piperidin-4-yl)-amine]
< 100	CC1(C)CNCC[C@@H]1Nc1nc(-c2ccnc(Nc3cc4ccccn4n3)c2)nc2cncc(C3CCC3)c12 [Example 380, {5-Cyclobutyl-2-[2-(pyrazolo[1,5-a]pyridin-2-ylamino)-pyridin-4-yl]-pyrido[3,4-d]pyrimidin-4-yl}-((S)-3,3-dimethyl-piperidin-4-yl)-amine]
< 100	CC1(C)CNCC[C@@H]1Nc1nc(-c2ccnc(Nc3cc(F)ccn3)c2)nc2cncc(C3CCC3)c12 [Example 382, {5-Cyclobutyl-2-[2-(4-fluoro-pyridin-2-ylamino)-pyridin-4-yl]-pyrido[3,4-d]pyrimidin-4-yl}-((S)-3,3-dimethyl-piperidin-4-yl)-amine]
< 100	COc1cccc(Nc2cc(-c3nc(N[C@H]4CCNCC4(C)C)c4c(C5CCC5)cncc4n3)ccn2)n1 [Example 383, {5-Cyclobutyl-2-[2-(6-methoxy-pyridin-2-ylamino)-pyridin-4-yl]-pyrido[3,4-d]pyrimidin-4-yl}-((S)-3,3-dimcthyl-piperidin-4-yl)-amine]
< 100	CC1(C)CNCC[C@@H]1Nc1nc(-c2ccnc(Nc3ccccn3)c2)nc2cncc(C3CCC3)c12 [Example 388, {5-Cyclobutyl-2-[2-(pyridin-2-ylamino)-pyridin-4-yl]-pyrido[3,4-d]pyrimidin-4-yl}-((S)-3,3-dimethyl-piperidin-4-yl)-amine]
< 100	CC1(C)CNCC[C@@H]1Nc1nc(-c2ccnc(Nc3ccc(F)cn3)c2)nc2cncc(C3CCC3)c12 [Example 389, {5-Cyclobutyl-2-[2-(5-fluoropyridin-2-ylamino)-pyridin-4-yl]-pyrido[3,4-d]pyrimidin-4-yl}-((S)-3,3-dimethyl-piperidin-4-yl)-amine]

More lines, now with the values behind:

Structure (SMILES)	IC50 [nM]
CC1(C)CNCC[C@@H]1Nc1nc(-c2ccnc3[nH]c(-c4cc(F)ccc4F)cc23)nc2cncc(C3CC3)c12 [Example 361, {5-Cyclopropyl-2-[2-(2,5-difluoro-phenyl)-1H-pyrrolo[2,3-b]pyridin-4-yl]-pyrido[3,4-d]pyrimidin-4-yl}-((S)-3,3-dimethyl-piperidin-4-yl)-amine]	< 100
CC1(C)CNCC[C@@H]1Nc1nc(-c2ccnc3[nH]c(C(=O)N4CCCCCC4)cc23)nc2cncc(C3CC3)c12 [Example 363, Azepan-1-yl-{4-[5-cyclopropyl-4-((S)-3,3-dimethyl-piperidin-4-ylamino)-pyrido[3,4-d]pyrimidin-2-yl]-1H-pyrrolo[2,3-b]pyridin-2-yl}-methanone]	< 100
Cc1cnc(F)c(-c2cc3c(-c4nc(N[C@H]5CCNCC5(C)C)c5c(C6CC6)cncc5n4)ccnc3[nH]2)c1 [Example 364, {5-Cyclopropyl-2-[2-(2-fluoro-5-methyl-pyridin-3-yl)-1H-pyrrolo[2,3-b]pyridin-4-yl]-pyrido[3,4-d]pyrimidin-4-yl}-((S)-3,3-dimethyl-piperidin-4-yl)-amine]	< 100
COc1ccc(Cl)c(-c2cc3c(-c4nc(N[C@H]5CCNCC5(C)C)c5c(C6CC6)cncc5n4)ccnc3[nH]2)c1 [Example 368, {2-[2-(2-Chloro-5-methoxy-phenyl)-1H-pyrrolo[2,3-b]pyridin-4-yl]-5-cyclopropyl-pyrido[3,4-d]pyrimidin-4-yl}-((S)-3,3-dimethyl-piperidin-4-yl)-amine]	< 100
c1cncc(-c2cc3c(-c4nc(N[C@H]5CCCNCC5)c5c(C6CC6)cncc5n4)ccnc3[nH]2)c1 [Example 369, (S)-Azepan-4-yl-[5-cyclopropyl-2-(2-pyridin-3-yl-1H-pyrrolo[2,3-b]pyridin-4-yl)-pyrido[3,4-d]pyrimidin-4-yl]-amine]	< 100
CC1(C)CNCC[C@@H]1Nc1nc(-c2ccnc3[nH]c(-c4cccnc4)cc23)nc2cncc(C(F)(F)F)c12 [Example 372, N-[(4S)-3,3-dimethyl-4-piperidyl]-2-[2-(3-pyridyl)-1H-pyrrolo[2,3-b]pyridin-4-yl]-5-(trifluoromethyl) pyrido[3,4-d]pyrimidin-4-amine]	< 100
c1ccc2c(c1)oc1nccc(-c3nc(N4CCNCC4)c4c(C5CC5)cncc4n3)c12 [Example 373, 4-(5-Cyclopropyl-4-piperazin-1-yl-pyrido[3,4-d]pyrimidin-2-yl)-benzofuro[2,3-b]pyridine]	1000 to 10000
c1ccc2c(c1)oc1nccc(-c3nc(NC4CCNCC4)c4c(C5CC5)cncc4n3)c12 [Example 374, 2-(benzofuro[2,3-b]pyridin-4-yl)-5-cyclopropyl-N-(4-piperidyl)pyrido[3,4-d]pyrimidin-4-amine]	1000 to 10000
CN(c1nc(-c2ccnc3[nH]c4ccccc4c23)nc2cncc(C3CCC3)c12)C1CC2NC(=O)OC2C1 (centres unmarked) [Example 375, 5-{[5-Cyclobutyl-2-(9H-pyrido[2,3-b]indol-4-yl)-pyrido[3,4-d]pyrimidin-4-yl]-methyl-amino}-hexahydro-cyclopentoxazol-2-one]	100 to 1000
O=C1NC2CC(Nc3nc(-c4ccnc5[nH]c6ccccc6c45)nc4cncc(C5CCC5)c34)CC2O1 (centres unmarked) [Example 376, 5-[5-Cyclobutyl-2-(9H-pyrido[2,3-b]indol-4-yl)-pyrido[3,4-d]pyrimidin-4-ylamino]-hexahydro-cyclopentoxazol-2-one]	1000 to 10000
NC(=O)C1CC(Nc2nc(-c3ccnc4[nH]c5ccccc5c34)nc3cncc(C4CCC4)c23)CC1N (centres unmarked) [Example 377, 2-amino-4-[[5-cyclobutyl-2-(9H-pyrido[2,3-b]indol-4-yl)pyrido[3,4-d]pyrimidin-4-yl]amino]cyclopentane carboxamide]	100 to 1000
CN(c1nc(-c2ccnc3[nH]c(-c4ncccc4F)cc23)nc2cncc(C3CC3)c12)[C@H]1CCNCC1(C)C [Example 384, {5-Cyclopropyl-2-[2-(3-fluoro-pyridin-2-yl)-1H-pyrrolo[2,3-b]pyridin-4-yl]-pyrido[3,4-d]pyrimidin-4-yl}-((S)-3,3-dimethyl-piperidin-4-yl)-methyl-amine]	< 100
CN(c1nc(-c2ccnc3[nH]c(-c4cccnc4)cc23)nc2cncc(C3CC3)c12)[C@H]1CCNCC1(C)C [Example 385, [5-Cyclopropyl-2-(2-pyridin-3-yl-1H-pyrrolo[2,3-b]pyridin-4-yl)-pyrido[3,4-d]pyrimidin-4-yl]-((S)-3,3-dimethyl-piperidin-4-yl)-methyl-amine]	< 100
